In assay [1] the test system is NER activity in HeLa cell extracts. As to the kind of experiment: In vitro NER assay: excision of a 1,3-intrastrand cisplatin adduct from plasmid in HeLa cell extract with XPA peptide. The class given is biochemical.
For the next assay, the target named is T1, ERCC1-XPF (Homo sapiens, UniProt P07992).
T1 sequence (P07992 1-297): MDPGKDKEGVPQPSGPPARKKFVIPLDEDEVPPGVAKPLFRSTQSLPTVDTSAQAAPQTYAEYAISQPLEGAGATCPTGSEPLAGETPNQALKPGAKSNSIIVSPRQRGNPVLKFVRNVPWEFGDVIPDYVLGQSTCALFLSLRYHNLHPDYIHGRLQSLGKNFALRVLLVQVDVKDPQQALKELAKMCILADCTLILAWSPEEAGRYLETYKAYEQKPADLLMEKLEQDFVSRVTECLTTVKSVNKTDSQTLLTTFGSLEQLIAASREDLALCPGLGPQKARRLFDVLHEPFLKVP
T1 sequence (Q92889 1-916 partner): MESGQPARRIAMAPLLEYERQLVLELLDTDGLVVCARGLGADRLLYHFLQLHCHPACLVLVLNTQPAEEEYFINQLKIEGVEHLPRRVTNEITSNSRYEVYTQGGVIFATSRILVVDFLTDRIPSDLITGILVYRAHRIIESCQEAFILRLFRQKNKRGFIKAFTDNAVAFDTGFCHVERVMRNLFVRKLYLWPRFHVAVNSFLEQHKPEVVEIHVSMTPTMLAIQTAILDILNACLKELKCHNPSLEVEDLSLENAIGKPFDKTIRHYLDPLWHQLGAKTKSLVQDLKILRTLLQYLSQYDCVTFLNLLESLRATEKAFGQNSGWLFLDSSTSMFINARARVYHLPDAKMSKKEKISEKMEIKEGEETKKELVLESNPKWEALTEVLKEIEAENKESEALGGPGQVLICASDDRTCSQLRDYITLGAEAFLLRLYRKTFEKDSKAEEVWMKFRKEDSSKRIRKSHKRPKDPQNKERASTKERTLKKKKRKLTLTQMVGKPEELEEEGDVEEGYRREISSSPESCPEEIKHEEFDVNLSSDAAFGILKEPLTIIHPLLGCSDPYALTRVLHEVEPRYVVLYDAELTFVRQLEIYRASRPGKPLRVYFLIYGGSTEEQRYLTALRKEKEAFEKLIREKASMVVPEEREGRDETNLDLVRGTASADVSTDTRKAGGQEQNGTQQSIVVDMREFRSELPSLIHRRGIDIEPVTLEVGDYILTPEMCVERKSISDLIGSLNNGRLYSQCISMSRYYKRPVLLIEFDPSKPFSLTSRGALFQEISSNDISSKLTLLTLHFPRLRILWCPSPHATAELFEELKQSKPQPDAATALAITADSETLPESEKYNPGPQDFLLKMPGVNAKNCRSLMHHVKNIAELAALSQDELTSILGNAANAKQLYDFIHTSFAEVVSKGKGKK
The assay can be described thus: Nuclease assay: incision of stem-loop DNA substrate by purified ERCC1-XPF. As to conditions: 92 μM peptide. The assay is classed as biochemical. On the procedure: Nuclease assay. A substrate consisting of a 12 base pair stem with a 22 nucleotide loop (5′-[…](T)22[…]; SEQ ID NO:7) was 5′ end labeled using a T4 polynucleotide kinase and [γ-^32P]-ATP. […] The final reaction volume was 15 μl.

A further assay deals with T2, ERCC192-214 (Homo sapiens, UniProt P07992).
T2 construct: an ERCC1 central domain fragment consisting of amino acids 92-214 preceded by an N-terminal hexahistidine tag; made in house; host or cells: E. coli BL21(DE3), M9 minimal media with 15N-labeled NH4Cl
T2 sequence (P07992 92-214): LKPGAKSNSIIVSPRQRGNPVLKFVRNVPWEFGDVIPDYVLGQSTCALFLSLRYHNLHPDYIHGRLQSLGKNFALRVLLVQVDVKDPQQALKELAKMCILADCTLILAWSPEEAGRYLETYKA
As to the kind of experiment: 15N HSQC NMR chemical shift perturbation of 15N-labeled ERCC1. The class given is binding. The conditions noted are these: 15N HSQC spectrum of ERCC1-XPA complex; read-out: dissociation equilibrium constant implied by slow-exchange regime. How it is done:
FIG. 3 illustrates the binding of XPA67-80 in a shallow groove of ERCC1. (A) A comparison of the two dimensional HSQC spectra for ^15N-labeled ERCC192-214 in the presence and absence of an unlabeled XPA67-80 peptide. The ^15N HSQC spectra reveal significant chemical shift changes for some ERCC1 residues (labeled) in the absence or presence of unlabeled XPA67-80. (B) Combined average chemical shift perturbations are calculated as Δχave=[((Δχ1H)^2+(Δχ15N/5)^2)/2)]^1/2 for each backbone amide of ERCC1 and shown as a histogram.
NMR experiments and determination of the structure of XPA-ERCC1 complex. All NMR data were acquired in the NMR Buffer described above. […] Backbone assignments of the free ERCC192-214 and ERCC1-XPA67-80 complex were performed using a standard set of triple-resonance experiments: HNCA/HN(CO)CA, HN(CA)CB/HN(COCA)CB and HNCO/HN(CA)CO.
Identification of the ERCC1 binding site in complex with XPA. The binding site for XPA on the surface of ERCC1 (FIG. 2B) was identified using two dimensional HSQC experiments. […] The ^15N HSQC spectrum of the ERCC1-XPA complex is consistent with a slow-exchange regime, implying a dissociation equilibrium constant below 1 μM for the complex. The XPA binding site on the ERCC1 central domain was identified using the backbone assignments for […] alone and in complex with XPA (see below). […]

No end group written: not given here. Bounds are passed on as bounds.

On to KIIDTGGGFILEEE [XPA67-80], for which, in assay [1] (HeLa cell extract, 92 μM), the “NER activity at 92 μM peptide” value is “completely abolishes NER activity”. Also, in assay [1] (HeLa cell free extract, plasmid with 1,3-cisplatin intrastrand crosslink, peptide 46 nM to 92 μM), the “effect on NER excision of the lesion-containing oligonucleotide” value is “inhibits the in vitro NER reaction”. Moreover, the “effect on intrinsic nuclease activity of ERCC1-XPF” value on ERCC1-XPF (0.4 mM MnCl2) is on record as “do not affect”; on ERCC1-XPF (0.4 mM MnCl2, listed as XPA peptide), “has no effect”. The Kd at ERCC192-214 is below 1000 nM.

The record behind these values is patent publication US20100331233A1, “CRYSTAL OF XPA AND ERCC1 COMPLEX AND USES THEREOF” (priority 2007, published 2010).
